Assay results from publication PMC7180948, “New Insights into 4-Anilinoquinazolines as Inhibitors of Cardiac Troponin I–Interacting Kinase (TNNi3K)” (Molecules, 2020).

Assays:
Experiment in all cases: biochemical
Parameters in all cases: KINOMEscan competition binding panel (Eurofins DiscoverX), single concentration, percent inhibition
Details in all cases: read-out: 15 at 1 µM % inhibition
PRKCI = PRKCI (Homo sapiens, UniProt P41743)
How it was run: (§1)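 A single 1 µM concentration of each compound is screened across upwards of 400 human kinases using the KINOMEscan format.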

FGFR3 = FGFR3 (Homo sapiens, UniProt P22607)
How it was run: as §1

[1] = molecular target: T1, JAK3(JH1domain-catalytic) (Homo sapiens, UniProt P52333)
T1 construct: JH1domain-catalytic
How it was run: as §1

ACVRL1 = ACVRL1 (Homo sapiens, UniProt P37023)
How it was run: as §1

DCAMKL3 = molecular target: T2, DCAMKL3 (Homo sapiens, UniProt Q9C098)
T2 construct: gene DCLK3
How it was run: as §1

FGFR1 = FGFR1 (Homo sapiens, UniProt P11362)
How it was run: as §1

NEK9 = NEK9 (Homo sapiens, UniProt Q8TD19)
How it was run: as §1

PRKD2 = PRKD2 (Homo sapiens, UniProt Q9BZL6)
How it was run: as §1

KIT-autoinhibited = KIT-autoinhibited (Homo sapiens, UniProt P10721)
How it was run: as §1

AMPK-alpha1 = molecular target: T3, AMPK-alpha1 (Homo sapiens, UniProt Q13131)
T3 construct: gene PRKAA1
How it was run: as §1

LRRK2 = LRRK2 (Homo sapiens, UniProt Q5S007)
How it was run: as §1

CDK2 = CDK2 (Homo sapiens, UniProt P24941)
How it was run: as §1

PIK3CA(M1043I) = PIK3CA(M1043I) (Homo sapiens, UniProt P42336, M1043I)
How it was run: as §1

SNARK = molecular target: T4, SNARK (Homo sapiens, UniProt Q9H093)
T4 construct: gene NUAK2
How it was run: as §1

[2] = molecular target: T5, ABL1(Q252H)-nonphosphorylated (Homo sapiens, UniProt P00519, Q252H)
T5 construct: nonphosphorylated
How it was run: as §1

AURKC = AURKC (Homo sapiens, UniProt Q9UQB9)
How it was run: as §1

TEC = TEC (Homo sapiens, UniProt P42680)
How it was run: as §1

[3] = molecular target: T6, RPS6KA4(Kin.Dom.1-N-terminal) (Homo sapiens, UniProt O75676)
T6 construct: Kin.Dom.1-N-terminal
How it was run: as §1

FLT3 = FLT3 (Homo sapiens, UniProt P36888)
How it was run: as §1

TTK = TTK (Homo sapiens, UniProt P33981)
How it was run: as §1

CSK = CSK (Homo sapiens, UniProt P41240)
How it was run: as §1

PIK3CA(H1047L) = PIK3CA(H1047L) (Homo sapiens, UniProt P42336, H1047L)
How it was run: as §1

GSK3A = GSK3A (Homo sapiens, UniProt P49840)
How it was run: as §1

MKK7 = molecular target: T7, MKK7 (Homo sapiens, UniProt O14733)
T7 construct: gene MAP2K7
How it was run: as §1

T4 sequence (Q9H093 whole entry): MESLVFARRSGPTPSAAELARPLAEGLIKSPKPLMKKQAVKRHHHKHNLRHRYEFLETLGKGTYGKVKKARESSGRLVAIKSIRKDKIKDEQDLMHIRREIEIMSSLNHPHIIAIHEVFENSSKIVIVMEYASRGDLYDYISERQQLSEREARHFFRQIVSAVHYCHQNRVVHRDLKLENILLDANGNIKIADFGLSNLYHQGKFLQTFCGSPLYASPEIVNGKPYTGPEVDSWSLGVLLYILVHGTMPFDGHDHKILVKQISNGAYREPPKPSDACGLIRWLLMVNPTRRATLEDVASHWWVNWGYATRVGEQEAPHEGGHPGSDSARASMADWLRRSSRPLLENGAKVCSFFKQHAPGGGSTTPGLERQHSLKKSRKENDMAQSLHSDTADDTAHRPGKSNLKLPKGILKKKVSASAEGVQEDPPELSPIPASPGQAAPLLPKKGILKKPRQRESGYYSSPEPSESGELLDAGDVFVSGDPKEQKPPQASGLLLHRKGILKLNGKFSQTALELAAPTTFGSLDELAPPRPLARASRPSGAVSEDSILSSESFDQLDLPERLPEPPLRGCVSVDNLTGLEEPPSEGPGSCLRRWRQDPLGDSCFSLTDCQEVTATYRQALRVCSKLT
T7 sequence (O14733 whole entry): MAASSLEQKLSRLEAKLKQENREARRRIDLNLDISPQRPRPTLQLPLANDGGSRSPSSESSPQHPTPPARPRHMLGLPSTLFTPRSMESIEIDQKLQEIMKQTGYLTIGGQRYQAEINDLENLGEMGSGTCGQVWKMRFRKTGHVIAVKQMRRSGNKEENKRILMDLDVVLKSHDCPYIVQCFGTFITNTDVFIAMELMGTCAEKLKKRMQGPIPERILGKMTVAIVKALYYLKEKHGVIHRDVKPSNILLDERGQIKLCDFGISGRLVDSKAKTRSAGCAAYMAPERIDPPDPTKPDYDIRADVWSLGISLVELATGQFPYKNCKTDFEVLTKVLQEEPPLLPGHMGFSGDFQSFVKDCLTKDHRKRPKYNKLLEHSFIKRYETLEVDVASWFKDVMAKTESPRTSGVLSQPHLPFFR
NEK9, sequence (Q8TD19 whole entry): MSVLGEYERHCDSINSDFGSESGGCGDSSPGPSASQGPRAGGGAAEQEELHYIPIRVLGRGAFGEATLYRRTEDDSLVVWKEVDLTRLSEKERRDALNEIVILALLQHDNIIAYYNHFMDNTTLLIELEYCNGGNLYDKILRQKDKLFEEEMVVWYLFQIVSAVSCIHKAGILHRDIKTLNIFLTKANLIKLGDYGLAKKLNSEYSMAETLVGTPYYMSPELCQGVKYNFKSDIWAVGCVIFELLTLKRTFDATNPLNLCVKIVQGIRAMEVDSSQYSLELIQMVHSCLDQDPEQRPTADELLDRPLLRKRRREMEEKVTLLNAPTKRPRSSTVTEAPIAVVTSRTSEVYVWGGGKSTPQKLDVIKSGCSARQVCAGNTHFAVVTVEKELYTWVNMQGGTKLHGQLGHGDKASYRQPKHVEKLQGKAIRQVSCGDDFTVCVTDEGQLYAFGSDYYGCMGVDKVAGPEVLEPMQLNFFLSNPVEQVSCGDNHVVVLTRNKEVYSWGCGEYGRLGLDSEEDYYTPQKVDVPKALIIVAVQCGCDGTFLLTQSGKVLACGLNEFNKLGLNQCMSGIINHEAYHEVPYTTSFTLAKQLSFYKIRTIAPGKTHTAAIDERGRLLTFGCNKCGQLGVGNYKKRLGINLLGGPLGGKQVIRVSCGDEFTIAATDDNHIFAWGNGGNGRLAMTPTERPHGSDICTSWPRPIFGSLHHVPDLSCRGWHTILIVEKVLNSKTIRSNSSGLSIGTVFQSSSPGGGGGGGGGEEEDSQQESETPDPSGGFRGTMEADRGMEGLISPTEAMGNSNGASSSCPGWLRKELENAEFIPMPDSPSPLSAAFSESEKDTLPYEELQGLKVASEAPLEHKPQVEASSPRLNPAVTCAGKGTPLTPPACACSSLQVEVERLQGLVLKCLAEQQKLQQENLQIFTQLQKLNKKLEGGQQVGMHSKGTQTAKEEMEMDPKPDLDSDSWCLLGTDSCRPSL
FGFR1, sequence (P11362 whole entry): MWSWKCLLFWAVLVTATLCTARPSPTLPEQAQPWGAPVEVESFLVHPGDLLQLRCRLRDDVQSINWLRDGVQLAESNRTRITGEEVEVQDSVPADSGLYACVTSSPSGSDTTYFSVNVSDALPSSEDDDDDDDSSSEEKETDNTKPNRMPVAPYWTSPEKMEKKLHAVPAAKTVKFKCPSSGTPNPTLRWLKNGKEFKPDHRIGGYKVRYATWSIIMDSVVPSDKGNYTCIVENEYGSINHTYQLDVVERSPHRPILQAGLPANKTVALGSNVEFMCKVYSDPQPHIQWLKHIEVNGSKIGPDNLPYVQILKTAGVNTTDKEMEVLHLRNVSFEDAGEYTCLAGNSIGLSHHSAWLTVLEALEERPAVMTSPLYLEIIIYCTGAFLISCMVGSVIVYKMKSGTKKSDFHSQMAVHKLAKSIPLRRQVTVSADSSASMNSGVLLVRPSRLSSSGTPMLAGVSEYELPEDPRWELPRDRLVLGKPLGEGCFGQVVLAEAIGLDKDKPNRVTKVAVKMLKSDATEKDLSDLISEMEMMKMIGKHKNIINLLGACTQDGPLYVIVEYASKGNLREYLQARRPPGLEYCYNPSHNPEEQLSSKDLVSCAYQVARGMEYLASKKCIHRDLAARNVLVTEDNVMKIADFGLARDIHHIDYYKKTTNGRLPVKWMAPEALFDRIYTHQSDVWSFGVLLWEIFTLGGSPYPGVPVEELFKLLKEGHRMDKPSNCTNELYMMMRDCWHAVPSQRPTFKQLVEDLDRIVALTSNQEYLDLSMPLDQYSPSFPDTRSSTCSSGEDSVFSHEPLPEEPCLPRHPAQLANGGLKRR
ACVRL1, sequence (P37023 whole entry): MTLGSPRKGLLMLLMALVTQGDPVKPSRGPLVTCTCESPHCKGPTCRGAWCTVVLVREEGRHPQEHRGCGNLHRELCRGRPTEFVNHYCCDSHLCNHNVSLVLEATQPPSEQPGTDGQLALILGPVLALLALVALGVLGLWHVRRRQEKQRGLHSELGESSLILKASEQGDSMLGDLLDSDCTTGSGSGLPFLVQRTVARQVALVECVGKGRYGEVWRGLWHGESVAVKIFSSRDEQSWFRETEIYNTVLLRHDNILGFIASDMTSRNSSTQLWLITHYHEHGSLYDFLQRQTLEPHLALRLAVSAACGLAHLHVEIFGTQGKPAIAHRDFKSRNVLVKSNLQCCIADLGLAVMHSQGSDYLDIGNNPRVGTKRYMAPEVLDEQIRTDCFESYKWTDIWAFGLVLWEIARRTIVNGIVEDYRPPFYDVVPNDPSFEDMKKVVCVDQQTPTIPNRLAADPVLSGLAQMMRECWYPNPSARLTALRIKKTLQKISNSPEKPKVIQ
GSK3A, sequence (P49840 whole entry): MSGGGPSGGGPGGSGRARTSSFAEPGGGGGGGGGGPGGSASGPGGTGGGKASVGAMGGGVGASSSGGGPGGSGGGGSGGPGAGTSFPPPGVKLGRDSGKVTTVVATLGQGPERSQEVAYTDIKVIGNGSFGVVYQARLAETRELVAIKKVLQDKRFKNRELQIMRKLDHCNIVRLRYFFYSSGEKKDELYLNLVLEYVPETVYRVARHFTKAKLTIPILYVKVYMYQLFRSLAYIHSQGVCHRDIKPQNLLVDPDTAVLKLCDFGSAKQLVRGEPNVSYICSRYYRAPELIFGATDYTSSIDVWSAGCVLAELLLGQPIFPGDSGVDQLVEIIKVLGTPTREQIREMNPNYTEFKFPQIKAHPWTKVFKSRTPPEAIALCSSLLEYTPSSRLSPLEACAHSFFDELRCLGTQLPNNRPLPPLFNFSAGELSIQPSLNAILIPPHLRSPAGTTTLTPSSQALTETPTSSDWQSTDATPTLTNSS
FGFR3, sequence (P22607 whole entry): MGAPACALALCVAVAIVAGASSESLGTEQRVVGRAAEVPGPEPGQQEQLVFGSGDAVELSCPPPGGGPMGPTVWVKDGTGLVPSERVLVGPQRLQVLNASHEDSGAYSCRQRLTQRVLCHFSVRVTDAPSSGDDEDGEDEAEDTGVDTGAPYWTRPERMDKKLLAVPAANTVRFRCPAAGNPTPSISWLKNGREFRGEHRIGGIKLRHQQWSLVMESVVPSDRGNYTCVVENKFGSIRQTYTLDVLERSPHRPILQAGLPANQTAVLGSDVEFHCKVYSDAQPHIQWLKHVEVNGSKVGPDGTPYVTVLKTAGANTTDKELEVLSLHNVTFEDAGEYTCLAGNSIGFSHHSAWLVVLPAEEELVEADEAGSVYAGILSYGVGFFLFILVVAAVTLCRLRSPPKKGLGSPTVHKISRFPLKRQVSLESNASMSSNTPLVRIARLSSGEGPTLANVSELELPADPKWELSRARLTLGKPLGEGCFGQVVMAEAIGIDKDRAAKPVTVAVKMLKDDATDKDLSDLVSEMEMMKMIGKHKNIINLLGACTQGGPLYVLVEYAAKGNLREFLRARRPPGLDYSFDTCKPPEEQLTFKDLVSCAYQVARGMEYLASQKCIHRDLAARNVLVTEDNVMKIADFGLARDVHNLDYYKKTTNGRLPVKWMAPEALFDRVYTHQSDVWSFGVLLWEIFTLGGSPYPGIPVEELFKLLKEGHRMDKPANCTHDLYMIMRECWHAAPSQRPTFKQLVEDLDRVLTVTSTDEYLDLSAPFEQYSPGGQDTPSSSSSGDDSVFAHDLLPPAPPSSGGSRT
AURKC, sequence (Q9UQB9 whole entry): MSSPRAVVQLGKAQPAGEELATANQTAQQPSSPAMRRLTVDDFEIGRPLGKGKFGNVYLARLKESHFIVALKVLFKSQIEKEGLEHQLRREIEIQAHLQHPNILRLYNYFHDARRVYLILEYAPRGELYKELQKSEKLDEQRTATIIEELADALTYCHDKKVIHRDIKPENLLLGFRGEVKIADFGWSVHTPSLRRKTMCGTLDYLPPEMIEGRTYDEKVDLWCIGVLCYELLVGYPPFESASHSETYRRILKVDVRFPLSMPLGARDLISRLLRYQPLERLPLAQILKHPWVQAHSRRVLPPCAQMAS

inhibition at 1 µM (PRKCI): 25%
inhibition at 1 µM (FGFR3): 1%
inhibition at 1 µM [1]: 10%
inhibition at 1 µM (ACVRL1): 0%
inhibition at 1 µM (DCAMKL3): 6%
inhibition at 1 µM (FGFR1): 10%
inhibition at 1 µM (PRKD2): 13%
inhibition at 1 µM (KIT-autoinhibited): 19%
inhibition at 1 µM (AMPK-alpha1): 1%
inhibition at 1 µM (LRRK2): 0%
inhibition at 1 µM (CDK2): 0%
inhibition at 1 µM (PIK3CA(M1043I)): 0%
inhibition at 1 µM (SNARK): 18%
inhibition at 1 µM [2]: 33%
inhibition at 1 µM (AURKC): 0%
inhibition at 1 µM (TEC): 13%
inhibition at 1 µM [3]: 3%
inhibition at 1 µM (FLT3): 10%
inhibition at 1 µM (TTK): 2%
inhibition at 1 µM (CSK): 2%
inhibition at 1 µM (PIK3CA(H1047L)): 21%
inhibition at 1 µM (GSK3A): 0%
inhibition at 1 µM (MKK7): 30%
Structure (SMILES): CNS(=O)(=O)c1ccc(N(C)C)c(Nc2nc(C)nc3cc(OC)c(OC)cc23)c1 [compound 15, 3-((6,7-dimethoxy-2-methylquinazolin-4-yl)amino)-4-(dimethylamino)-N-methylbenzenesulfonamide]
inhibition at 1 µM (NEK9): 0%
